{"source": "ChEMBL document CHEMBL1151142", "about": "“Triterpenoids and Flavonoids from Hyptis albida” (J Nat Prod, 1990)"}
{"tested_on": "Artemia", "assay": "Toxicity against brine shrimp", "assay_type": "organism-based", "details": "in vivo", "units": {"LC50": "ppm"}}
{"smiles": "CC1(C)CC[C@@]23CC[C@]4(C)[C@@](CC[C@@H]5[C@@]6(C)CC[C@H](O)C(C)(C)[C@@H]6CC[C@]54C)(OC2=O)[C@@H]3C1", "LC50": "> 700"}
{"smiles": "CC1(C)CC[C@@]23CC[C@]4(C)[C@@](OC2=O)([C@@H]3C1)[C@H]1O[C@H]1[C@@H]1[C@@]2(C)CC[C@H](O)C(C)(C)[C@@H]2CC[C@]14C", "LC50": "> 700"}
{"smiles": "CC1(C)CC[C@@]23CC[C@]4(C)[C@@](C=C[C@@H]5[C@@]6(C)CC[C@H](O)C(C)(C)[C@@H]6CC[C@]54C)(OC2=O)[C@@H]3C1", "LC50": "> 700"}
{"smiles": "COc1ccc(-c2oc3cc(OC)cc(O)c3c(=O)c2OC)cc1", "LC50": "> 700"}
{"smiles": "CC(=O)O[C@H]1CC[C@]2(C)[C@H]3CC=C4[C@@H]5CC(C)(C)CC[C@]5(C(=O)O)CC[C@@]4(C)[C@]3(C)CC[C@H]2C1(C)C", "note": "[ACETYL OLEANOLIC ACID]", "LC50": "> 700"}
{"smiles": "COc1ccc(-c2cc(=O)c3c(O)cc(OC)cc3o2)cc1", "note": "[APIGENIN DIMETHYLETHER]", "LC50": "> 700"}
{"smiles": "C=C(C)[C@@H]1CC[C@]2(C(=O)O)CC[C@]3(C)[C@H](CC[C@@H]4[C@@]5(C)CC[C@H](O)C(C)(C)[C@@H]5CC[C@]43C)[C@@H]12", "note": "[BETULINIC ACID]", "LC50": "> 700"}
{"smiles": "COc1ccc(-c2oc3cc(O)cc(O)c3c(=O)c2OC)cc1", "note": "[ERMANIN]", "LC50": "> 700"}
{"smiles": "COc1ccc(-c2cc(=O)c3c(O)c(OC)c(OC)c(OC)c3o2)cc1", "note": "[GARDENIN B]", "LC50": "> 700"}
{"smiles": "COc1ccc(-c2cc(=O)c3c(O)c(OC)c(O)c(OC)c3o2)cc1", "note": "[NEVADENSIN]", "LC50": "> 700"}
{"smiles": "CC1(C)CC[C@]2(C(=O)O)CC[C@]3(C)C(=CC[C@@H]4[C@@]5(C)CC[C@H](O)C(C)(C)[C@@H]5CC[C@]43C)[C@@H]2C1", "note": "[OLEANOLIC_ACID]", "LC50": "> 700"}
{"smiles": "C[C@H]1[C@H](C)CC[C@]2(C(=O)O)CC[C@]3(C)C(=CC[C@@H]4[C@@]5(C)CC[C@H](O)C(C)(C)[C@@H]5CC[C@]43C)[C@H]12", "note": "[URSOLIC ACID]", "LC50": "> 700"}
